Data reported in PubChem BioAssay (NCI).
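GI50 is the concentration that inhibits growth by half. At the TGI there is no net growth.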

Experiments:
Experiment in all cases: growth of human tumour cells (NCI), 384-well format
MDA-MB-231 breast = test system: MDA-MB-231 breast
SN12C renal = test system: SN12C renal
EKVX NSCLC = test system: EKVX NSCLC
MDA-MB-468 breast = test system: MDA-MB-468 breast
OVCAR-3 ovarian = test system: OVCAR-3 ovarian
NCI/ADR-RES ovarian = test system: NCI/ADR-RES ovarian
TK-10 renal = test system: TK-10 renal
COLO 205 colon = test system: COLO 205 colon
OVCAR-8 ovarian = test system: OVCAR-8 ovarian
SK-OV-3 ovarian = test system: SK-OV-3 ovarian
LOX IMVI melanoma = test system: LOX IMVI melanoma
SF-268 CNS = test system: SF-268 CNS
SNB-75 CNS = test system: SNB-75 CNS
MCF7 breast = test system: MCF7 breast
MALME-3M melanoma = test system: MALME-3M melanoma
RXF 393 renal = test system: RXF 393 renal
HS 578T breast = test system: HS 578T breast
CAKI-1 renal = test system: CAKI-1 renal
DU-145 prostate = test system: DU-145 prostate
SF-539 CNS = test system: SF-539 CNS
M14 melanoma = test system: M14 melanoma
HCT-116 colon = test system: HCT-116 colon
HL-60(TB) leukemia = test system: HL-60(TB) leukemia
HOP-62 NSCLC = test system: HOP-62 NSCLC
T-47D breast = test system: T-47D breast
PC-3 prostate = test system: PC-3 prostate
A498 renal = test system: A498 renal
NCI-H460 NSCLC = test system: NCI-H460 NSCLC
NCI-H322M lung = test system: NCI-H322M lung
SW-620 colon = test system: SW-620 colon
BT-549 breast = test system: BT-549 breast
RPMI-8226 leukemia = test system: RPMI-8226 leukemia
U251 glioblastoma = test system: U251 glioblastoma
CCRF-CEM leukemia = test system: CCRF-CEM leukemia
UACC-62 melanoma = test system: UACC-62 melanoma
HCT-15 colon = test system: HCT-15 colon
MOLT-4 leukemia = test system: MOLT-4 leukemia
UO-31 renal = test system: UO-31 renal
HCC-2998 colon = test system: HCC-2998 colon
SK-MEL-28 melanoma = test system: SK-MEL-28 melanoma
SNB-19 CNS = test system: SNB-19 CNS
SK-MEL-5 melanoma = test system: SK-MEL-5 melanoma
UACC-257 melanoma = test system: UACC-257 melanoma
HOP-92 NSCLC = test system: HOP-92 NSCLC
HT29 colon = test system: HT29 colon
OVCAR-4 ovarian = test system: OVCAR-4 ovarian
MDA-MB-435 melanoma = test system: MDA-MB-435 melanoma
A549 NSCLC = test system: A549 NSCLC
KM12 colon = test system: KM12 colon
786-0 renal = test system: 786-0 renal
IGROV1 ovarian = test system: IGROV1 ovarian
OVCAR-5 ovarian = test system: OVCAR-5 ovarian
SF-295 CNS = test system: SF-295 CNS
ACHN renal = test system: ACHN renal
NCI-H522 lung = test system: NCI-H522 lung
NCI-H23 lung = test system: NCI-H23 lung
NCI-H226 lung = test system: NCI-H226 lung

## COc1cc2ncnc(Oc3cccc(NC(=O)Nc4cc(C(C)(C)C(F)(F)F)on4)c3)c2cc1OC
MDA-MB-231 breast
  GI50: 192 nM
  TGI: 3.98 µM
SN12C renal
  GI50: 850 nM
  TGI: 3.28 µM
EKVX NSCLC
  GI50: 1050 nM
  TGI: 3.29 µM
MDA-MB-468 breast
  GI50: 747 nM
  TGI: 2310 nM
OVCAR-3 ovarian
  GI50: 1750 nM
  TGI: 4.6 µM
NCI/ADR-RES ovarian
  GI50: 2030 nM
  TGI: 4.78 µM
TK-10 renal
  GI50: 1690 nM
  TGI: 4.03 µM
COLO 205 colon
  GI50: 48.1 nM
  TGI: 1590 nM
OVCAR-8 ovarian
  GI50: 2300 nM
  TGI: 9.64 µM
SK-OV-3 ovarian
  GI50: 871 nM
  TGI: 3.14 µM
LOX IMVI melanoma
  GI50: 187 nM
  TGI: 1020 nM
SF-268 CNS
  GI50: 216 nM
  TGI: 1100 nM
SNB-75 CNS
  GI50: 1860 nM
  TGI: 3.95 µM
MCF7 breast
  GI50: 1970 nM
  TGI: 7.65 µM
MALME-3M melanoma
  GI50: 14.6 nM
  TGI: 69.3 nM
RXF 393 renal
  GI50: 1540 nM
  TGI: 3.44 µM
HS 578T breast
  GI50: 1540 nM
  TGI: 2990 nM
CAKI-1 renal
  GI50: 613 nM
  TGI: 3.6 µM
DU-145 prostate
  GI50: 2790 nM
  TGI: 11 µM
SF-539 CNS
  GI50: 1350 nM
  TGI: 2780 nM
M14 melanoma
  GI50: 19.3 nM
  TGI: 214 nM
HCT-116 colon
  GI50: 581 nM
  TGI: 1970 nM
HL-60(TB) leukemia
  GI50: 309 nM
  TGI: 1750 nM
HOP-62 NSCLC
  GI50: 1530 nM
  TGI: 3.01 µM
T-47D breast
  GI50: 1110 nM
  TGI: 3.44 µM
PC-3 prostate
  GI50: 2510 nM
  TGI: 5.73 µM
A498 renal
  GI50: 810 nM
  TGI: 5.31 µM
NCI-H460 NSCLC
  GI50: 1540 nM
  TGI: 4.46 µM
NCI-H322M lung
  GI50: 865 nM
  TGI: 5.18 µM
SW-620 colon
  GI50: 1180 nM
  TGI: 3.67 µM
BT-549 breast
  GI50: 1660 nM
  TGI: 3.08 µM
RPMI-8226 leukemia
  GI50: 1760 nM
  TGI: 3.14 µM
U251 glioblastoma
  GI50: 1670 nM
  TGI: 3.17 µM
CCRF-CEM leukemia
  GI50: 1450 nM
  TGI: 2770 nM
UACC-62 melanoma
  GI50: 17.8 nM
  TGI: 267 nM
HCT-15 colon
  GI50: 1860 nM
  TGI: 6.28 µM
MOLT-4 leukemia
  GI50: 1110 nM
  TGI: 2310 nM
UO-31 renal
  GI50: 976 nM
  TGI: 3.15 µM
HCC-2998 colon
  GI50: 1230 nM
  TGI: 2570 nM
SK-MEL-28 melanoma
  GI50: 35.1 nM
  TGI: 541 nM
SNB-19 CNS
  GI50: 4.2 µM
  TGI: 14 µM
SK-MEL-5 melanoma
  GI50: 206 nM
  TGI: 1720 nM
UACC-257 melanoma
  GI50: 57.5 nM
  TGI: 667 nM
HOP-92 NSCLC
  GI50: 1260 nM
  TGI: 2550 nM
HT29 colon
  GI50: 174 nM
  TGI: 1650 nM
OVCAR-4 ovarian
  GI50: 3.14 µM
  TGI: 12.4 µM
MDA-MB-435 melanoma
  GI50: 118 nM
  TGI: 1940 nM
A549 NSCLC
  GI50: 1260 nM
  TGI: 5.57 µM
KM12 colon
  GI50: 1920 nM
  TGI: 4.43 µM
786-0 renal
  GI50: 1520 nM
  TGI: 3.77 µM
IGROV1 ovarian
  GI50: 222 nM
  TGI: 1270 nM
OVCAR-5 ovarian
  GI50: 1080 nM
  TGI: 4.57 µM
SF-295 CNS
  GI50: 2060 nM
  TGI: 4.52 µM
ACHN renal
  GI50: 399 nM
  TGI: 2390 nM
NCI-H522 lung
  GI50: 242 nM
  TGI: 1610 nM
NCI-H23 lung
  GI50: 168 nM
  TGI: 1470 nM
NCI-H226 lung
  GI50: 384 nM
  TGI: 7.55 µM
